Read-outs that look alike come from different tables or passages of the source. *1 amine or outer side, *2 acyl side, *3 side chain or, on linkers, in order; H or OH if unused. Where a SMILES comes first, the peptide text is derived from it. Bridges are numbered along the chain shown (N, C = ends). [ ]: non-standard residue; d: D form. The star is where a group is joined. DOTA = O=C(O)CN1CCN(CC(=O)O)CCN(CC(=O)*)CCN(CC(=O)O)CC1; Pro(trans-4-F) = O=C(O)[C@@H]1C[C@@H](F)CN1; cisHyp = O=C(O)[C@@H]1C[C@H](O)CN1; Hyp = O=C(O)[C@@H]1C[C@@H](O)CN1; NMeE = CN[C@@H](CCC(=O)O)C(=O)O; Pentanoyl(4-Me) = CC(C)CCC(=O)*; 2Thi = N[C@@H](Cc1cccs1)C(=O)O; Cha = N[C@@H](CC1CCCCC1)C(=O)O; Cit = NC(=O)NCCC[C@H](N)C(=O)O; X9 = OC[C@H](CS[*:1])N[*:2]; Nva = CCC[C@H](N)C(=O)O; Pentanoyl = CCCCC(=O)*
Key:
human uPAR (uPAR-Fc) = biological target: T1, human uPAR (uPAR-Fc) (Homo sapiens, UniProt Q03405); assay: Surface plasmon resonance (SPR) assay, single cycle kinetics; assay type: binding; conditions: pKD category for uPAR SPR activity assay, uPAR-Fc on Protein A-Chip, 25°C, read-out: pKD CAT (converted)
T1 construct: comprising amino acids Leu23-Arg303 according to UniProt entry Q03405.1; purchased R&D Systems 10378-UK-100
Outline: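 uPAR-Fc (Leu23-Arg303 extracellular domains, human IgG1 Fc) captured on Protein A chip to ~2000 RU; single-cycle kinetics at 25°C in HEPES running buffer pH 7.4 with 0.1% DMSO. KD from double-referenced sensorgrams fitted to 1:1 Langmuir model, reported as pKD.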

[1] = biological target: T2, uPAR-expressing HEC-265 human endometrial adenocarcinoma cells (Homo sapiens, UniProt Q03405); assay: Competitive FACS binding assay; conditions: pIC50 category of FACS binding
T2 construct: Cell surface uPAR-expressing HEC-265 human endometrial adenocarcinoma cells; host or cells: HEC-265
Outline: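 HEC-265 cells incubated 1 h at 4 °C with 10 nM biotinylated uPAR peptide tracer plus increasing test compound, then stained with APC-streptavidin on ice. Median APC fluorescence by flow cytometry; 4PL fit gives pIC50.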

T2 sequence (Q03405 23-335): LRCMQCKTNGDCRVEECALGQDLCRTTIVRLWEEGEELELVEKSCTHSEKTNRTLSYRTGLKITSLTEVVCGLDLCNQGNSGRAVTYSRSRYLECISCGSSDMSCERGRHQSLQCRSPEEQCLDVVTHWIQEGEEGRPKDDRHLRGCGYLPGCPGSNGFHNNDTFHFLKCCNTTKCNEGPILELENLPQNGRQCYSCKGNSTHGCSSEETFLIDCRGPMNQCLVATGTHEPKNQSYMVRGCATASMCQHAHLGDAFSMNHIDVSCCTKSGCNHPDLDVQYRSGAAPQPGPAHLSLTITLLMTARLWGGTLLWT
T1 sequence (Q03405 23-303): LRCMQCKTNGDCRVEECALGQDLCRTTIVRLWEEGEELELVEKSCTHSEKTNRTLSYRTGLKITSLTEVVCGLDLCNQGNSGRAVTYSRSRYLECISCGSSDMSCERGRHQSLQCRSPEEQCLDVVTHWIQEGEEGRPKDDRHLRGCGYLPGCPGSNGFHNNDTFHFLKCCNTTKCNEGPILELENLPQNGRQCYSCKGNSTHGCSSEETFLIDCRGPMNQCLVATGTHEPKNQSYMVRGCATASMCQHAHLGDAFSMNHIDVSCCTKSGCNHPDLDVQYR

## CCCCC(=O)N[C@H]1CSSC[C@@H](C(N)=O)NC(=O)[C@H](CCC)NC(=O)[C@H]([C@@H](C)CC)NC(=O)[C@@H]2C[C@H](O)CN2C(=O)[C@@H]2CCCN2C(=O)[C@H](Cc2ccccc2)NC(=O)[C@H](Cc2ccc(O)cc2)NC(=O)[C@H](CCCCNC(=O)CN2CCN(CC(=O)O)CCN(CC(=O)O)CCN(CC(=O)O)CC2)NC(=O)[C@H](CCCNC(N)=O)NC1=O [UPAR-214, Pent-[Cys-Cit-Lys(DOTA)-Tyr-Phe-Pro-Chy-Ile-Nva-Cys]-NH2] (Pentanoyl-C[Cit]K(DOTA)YFP[cisHyp]I[Nva]C-NH2; disulfide 1-10)
Human uPAR (uPAR-Fc)
  Kd: < 1.58 nM
[1]
  IC50: ≤ 10 nM

## CCCCC(=O)N[C@H]1CSSC[C@@H](C(N)=O)NC(=O)[C@H](CCC)NC(=O)[C@H]([C@@H](C)CC)NC(=O)[C@@H]2C[C@@H](O)CN2C(=O)[C@@H]2CCCN2C(=O)[C@H](Cc2cccs2)NC(=O)[C@H](Cc2ccc(O)cc2)NC(=O)[C@H](CCCCNC(=O)CN2CCN(CC(=O)O)CCN(CC(=O)O)CCN(CC(=O)O)CC2)NC(=O)[C@H](CCCNC(N)=O)NC1=O [UPAR-360, Pent-[Cys-Cit-Lys(DOTA)-Tyr-Thi-Pro-Hyp-Ile-Nva-Cys]-NH2] (Pentanoyl-C[Cit]K(DOTA)Y[2Thi]P[Hyp]I[Nva]C-NH2; disulfide 1-10)
Human uPAR (uPAR-Fc); single cycle kinetics
  Kd: < 1.58 nM
[1]
  IC50: ≤ 10 nM

## CCCCC(=O)N[C@H]1CSSC[C@@H](CO)NC(=O)[C@H](CCC)NC(=O)[C@H]([C@@H](C)CC)NC(=O)[C@@H]2C[C@@H](O)CN2C(=O)[C@@H]2CCCN2C(=O)[C@H](Cc2ccccc2)NC(=O)[C@H](Cc2ccc(O)cc2)NC(=O)[C@H](CCC(N)=O)NC(=O)[C@H](CCCNC(N)=O)NC1=O [UPAR-292, Pent-[Cys-Cit-Gln-Tyr-Phe-Pro-Hyp-Ile-Nva-Cysol]-OH] (Pentanoyl-C[Cit]QYFP[Hyp]I[Nva]; linker 1-C via X9)
Human uPAR (uPAR-Fc)
  Kd: < 1.58 nM
[1]
  IC50: ≤ 10 nM

## CCCCC(=O)N[C@H]1CSSC[C@@H](C(N)=O)NC(=O)[C@H](CCC)NC(=O)[C@H]([C@@H](C)CC)NC(=O)[C@@H]2C[C@@H](O)CN2C(=O)[C@@H]2CCCN2C(=O)[C@H](Cc2ccccc2)NC(=O)[C@H](Cc2ccc(O)cc2)NC(=O)[C@H](CCC(N)=O)NC(=O)[C@H](CCCNC(N)=O)NC1=O [UPAR-309, Pent-[Cys-Cit-Gln-Tyr-Phe-Pro-Hyp-Ile-Nva-Cys]-NHz] (Pentanoyl-C[Cit]QYFP[Hyp]I[Nva]C-NH2; disulfide 1-10)
Human uPAR (uPAR-Fc)
  Kd: < 1.58 nM
[1]
  IC50: ≤ 10 nM

## CCC[C@@H]1NC(=O)[C@H]([C@@H](C)CC)NC(=O)[C@@H]2C[C@@H](O)CN2C(=O)[C@@H]2CCCN2C(=O)[C@H](Cc2ccccc2)NC(=O)[C@H](Cc2ccc(O)cc2)NC(=O)[C@H](CCC(N)=O)NC(=O)[C@H](CCCNC(=N)N)NC(=O)[C@@H](NC(=O)[C@H](CC2CCCCC2)NC(C)=O)CSSC[C@@H](C(N)=O)NC1=O [UPAR-372, Ac-Cha-[Cys-Arg-Gln-Tyr-Phe-Pro-Hyp-Ile-Nva-Cys]-NH2] (Ac-[Cha]CRQYFP[Hyp]I[Nva]C-NH2; disulfide 2-11)
Human uPAR (uPAR-Fc); single cycle kinetics
  Kd: < 1.58 nM
[1]
  IC50: ≤ 10 nM

## CC[C@H](C)[C@@H]1NC(=O)[C@@H](C)NC(=O)[C@@H]2C[C@@H](F)CN2C(=O)[C@H](Cc2ccccc2)NC(=O)[C@H](Cc2ccc(O)cc2)NC(=O)[C@H](CCC(N)=O)NC(=O)[C@H](CCCNC(N)=O)NC(=O)[C@@H](NC(=O)CCC(C)C)CSSC[C@@H](C(N)=O)NC(=O)[C@H](CC(C)C)NC1=O [UPAR-178, iHex-[Cys-Cit-Gln-Tyr-Phe-4Tfp-ala-Ile-Leu-Cys]-NH2] ({Pentanoyl(4-Me)}-C[Cit]QYF[Pro(trans-4-F)][dA]ILC-NH2; disulfide 1-10)
Human uPAR (uPAR-Fc)
  Kd: 1.58 to 10 nM
[1]
  IC50: ≤ 10 nM

## CCCCC(=O)N[C@H]1CSSC[C@@H](C(N)=O)NC(=O)[C@H](CCC)NC(=O)[C@H]([C@@H](C)CC)NC(=O)[C@H](CCC(=O)O)N(C)C(=O)[C@@H]2CCCN2C(=O)[C@H](Cc2ccccc2)NC(=O)[C@H](Cc2ccc(O)cc2)NC(=O)[C@H](CCCCNC(=O)CN2CCN(CC(=O)O)CCN(CC(=O)O)CCN(CC(=O)O)CC2)NC(=O)[C@H](CCCNC(N)=O)NC1=O [UPAR-327, Pent-[Cys-Cit-Lys(DOTA)-Tyr-Phe-Pro-Nme-Ile-Nva-Cys]-NH2] (Pentanoyl-C[Cit]K(DOTA)YFP[NMeE]I[Nva]C-NH2; disulfide 1-10)
Human uPAR (uPAR-Fc)
  Kd: > 100 nM
[1]
  IC50: ≥ 126 nM
